Source: patent US10287615B2, “Sophorolactone production” (ECOVER CO-ORDINATION CENTER N.V., priority 2011, dated 2019)

How the values were obtained:
[1] = Static surface tension, pending drop method on a Krüss DSA100 tensiometer; type: physicochemical; conditions: water 71.26
Procedure: The lactone obtained in Example 10 was partially hydrolysed in degrees ranging from 0 to 2 equivalents using potassium hydroxide. Partial alkaline hydrolysis in this context implies that less than 3 mol KOH were added per mol lactone. As a consequence only part of the 3 ester bonds, i.e. the lactonic bond and the two acetyl ester bonds, was hydrolysed and a mixture of various sophorolipids formed.
The static surface tension of the partial hydrolysates obtained in the above described experiment was measured according to the pending drop method on a Krüss DSA100 tensiometer.

[2] = Stain removal efficacy in automatic dishwashing on soil plates; conditions: for average Rw (Y reflection value for washed): 1.4% surfactant in base formula, 50° C. eco; for soil removal: Rw minus Rs
Text: A sophorolipid lactone sample obtained from the experiment described in Example 8 was centrifuged, spread out on Torck paper and allowed to air dry. The resulting solid was crushed with a coffee mill to a fine powder and dried further with compressed air to >98 wt %. This powder was compared as to its efficiency in automatic dishwashing versus a low foaming alkylpolyglucoside, in particular Simulsol AS48, available from Seppic SA, at equal active matter content. […] 20 gram of the base formula was dosed in a ZDF211 dishwasher. Program D 50° C. eco was run.
In the automatic dishwasher 7 types of soil plates (available from CFT, Vlaardingen, The Netherlands) mounted in a stainless steel holding frame were inserted.

[3] = Storage stability of non-aqueous sophorolactone solution, HPLC-ELSD; type: physicochemical; conditions: for acid sophorolipid peak (hydrolysis of lactone), share of the total peak area: 10 g sophorolactone in 90 g ethyllactate or isoamyl lactate
Procedure: Both samples were split in 50 ml samples and stored at 4° C. and at 40° C. respectively. After 2 months of storage they were analyzed with HPLC-ELSD. The results are as illustrated by the chromatograms depicted in FIG. 7 and FIG. 8. After 2 months of storage at either 4° C., result depicted in FIG. 7, or 40° C., result depicted in FIG. 8, of this non-aqueous sophorolactone solution only a negligible hydrolysis of lactone material occurred as evidenced by an acid sophorolipid peak appearing at 30.5 min in the grey overlay graph. This peak represents less than 1% of the total peak area.

Surface tension ([1]; Conc. 10 ppm): 71.00 mN/m
Surface tension ([1]; Conc. 50 ppm): 66.21 mN/m
Surface tension ([1]; Conc. 100 ppm): 63.02 mN/m
Surface tension ([1]; Conc. 250 ppm): 47.67 mN/m
Surface tension ([1]; Conc. 1000 ppm): 36.69 mN/m
Surface tension ([1]; Conc. 2000 ppm): 36.26 mN/m
Surface tension ([1]; Conc. 5000 ppm): 35.85 mN/m
Surface tension ([1]; Conc. 10000 ppm): 35.33 mN/m
Surface tension ([1]; Conc. 25000 ppm): 35.54 mN/m
Surface tension ([1]; Conc. 50000 ppm): 35.14 mN/m
storage stability of non-aqueous solution (chromatogram overlay) ([3]; 2 months of storage at 40° C.): storage stable
acid sophorolipid peak (hydrolysis of lactone), share of the total peak area ([3]; 2 months of storage at 4° C.): less than 1%
acid sophorolipid peak (hydrolysis of lactone), share of the total peak area ([3]; 2 months of storage at 40° C.): less than 1%
storage stability of non-aqueous solution (chromatogram overlay) ([3]; storage at 4° C. for 2 months): storage stable
Substance: sophorolactone
soil removal rates, overall comparison ([2]; automatic dishwashing, equal active matter content, alkaline pH of about 9.8): superior to Simulsol AS48
average Rw (Y reflection value for washed) ([2]; stain Cheese DM06): 41.9
soil removal ([2]; stain Cheese DM06): 16.9
average Rw (Y reflection value for washed) ([2]; stain Chocolate DM75): 24.9
soil removal ([2]; stain Chocolate DM75): 7.1
average Rw (Y reflection value for washed) ([2]; stain Coffee DM81): 77.5
soil removal ([2]; stain Coffee DM81): 7.3
average Rw (Y reflection value for washed) ([2]; stain Egg yolk/milk DM31): 52.0
soil removal ([2]; stain Egg yolk/milk DM31): 6.8
average Rw (Y reflection value for washed) ([2]; stain Mix starch DM77): 37.6
soil removal ([2]; stain Mix starch DM77): 1.6
average Rw (Y reflection value for washed) ([2]; stain Red wine DM51): 72.4
soil removal ([2]; stain Red wine DM51): 17.1
average Rw (Y reflection value for washed) ([2]; stain Tea DM11): 75.7
soil removal ([2]; stain Tea DM11): 14.6
